Data published in paper PMC4508061, “Selectivity Profiling and Biological Activity of Novel β-Carbolines as Potent and Selective DYRK1 Kinase Inhibitors” (PLoS ONE, 2015).

Legend:
Cell viability XTT assay = type: cell-based; conditions: human, HeLa cells, read-out: Viability of treated cells relative to untreated control
HeLa cells = assay: Cell viability XTT assay; type: cell-based; conditions: up to 10 μM, 3 days
ABL1 = ABL1 (Homo sapiens, UniProt P00519); assay: ProQinase radiometric kinase panel; conditions: mean of 2 exp.
AKT2 = AKT2 (Homo sapiens, UniProt P31751); assay: ProQinase radiometric kinase panel; conditions: mean of 2 exp.
AKT3 = AKT3 (Homo sapiens, UniProt Q9Y243); assay: ProQinase radiometric kinase panel; conditions: mean of 2 exp.
ARK5 = ARK5 (Homo sapiens, UniProt O60285); assay: ProQinase radiometric kinase panel; conditions: mean of 2 exp.
AXL = AXL (Homo sapiens, UniProt P30530); assay: ProQinase radiometric kinase panel; conditions: mean of 2 exp.
CAMK2B = CAMK2B (Homo sapiens, UniProt Q13554); assay: ProQinase radiometric kinase panel; conditions: mean of 2 exp.
CDC42BPA = CDC42BPA (Homo sapiens, UniProt Q5VT25); assay: ProQinase radiometric kinase panel; conditions: mean of 2 exp.
CDC42BPB = CDC42BPB (Homo sapiens, UniProt Q9Y5S2); assay: ProQinase radiometric kinase panel; conditions: mean of 2 exp.
CDK3/CycE1 = CDK3/CycE1 (Homo sapiens, UniProt Q00526); assay: ProQinase radiometric kinase panel; conditions: mean of 2 exp.
CHK1 = CHK1 (Homo sapiens, UniProt O14757); assay: ProQinase radiometric kinase panel; conditions: mean of 2 exp.
DAPK3 = DAPK3 (Homo sapiens, UniProt O43293); assay: ProQinase radiometric kinase panel; conditions: mean of 2 exp.
EPHB1 = EPHB1 (Homo sapiens, UniProt P54762); assay: ProQinase radiometric kinase panel; conditions: mean of 2 exp.
FGF-R2 = FGF-R2 (Homo sapiens, UniProt P21802); assay: ProQinase radiometric kinase panel; conditions: mean of 2 exp.
FGF-R4 = FGF-R4 (Homo sapiens, UniProt P22455); assay: ProQinase radiometric kinase panel; conditions: mean of 2 exp.
GSK3-alpha = GSK3-alpha (Homo sapiens, UniProt P49840); assay: ProQinase radiometric kinase panel; conditions: mean of 2 exp.
IKK-epsilon = IKK-epsilon (Homo sapiens, UniProt Q14164); assay: ProQinase radiometric kinase panel; conditions: mean of 2 exp.
LRRK2 = LRRK2 (Homo sapiens, UniProt Q5S007); assay: ProQinase radiometric kinase panel; conditions: mean of 2 exp.
MAP4K5 = MAP4K5 (Homo sapiens, UniProt Q9Y4K4); assay: ProQinase radiometric kinase panel; conditions: mean of 2 exp.
MARK2 = MARK2 (Homo sapiens, UniProt Q7KZI7); assay: ProQinase radiometric kinase panel; conditions: mean of 2 exp.
MKNK2 = MKNK2 (Homo sapiens, UniProt Q9HBH9); assay: ProQinase radiometric kinase panel; conditions: mean of 2 exp.
MST1 = MST1 (Homo sapiens, UniProt Q13043); assay: ProQinase radiometric kinase panel; conditions: mean of 2 exp.
MST4 = MST4 (Homo sapiens, UniProt Q9P289); assay: ProQinase radiometric kinase panel; conditions: mean of 2 exp.
p38-alpha = p38-alpha (Homo sapiens, UniProt Q16539); assay: ProQinase radiometric kinase panel; conditions: mean of 2 exp.
PAK7 = PAK7 (Homo sapiens, UniProt Q9P286); assay: ProQinase radiometric kinase panel; conditions: mean of 2 exp.
CDK16/CycY = CDK16/CycY (Homo sapiens, UniProt Q00536); assay: ProQinase radiometric kinase panel; conditions: mean of 2 exp.
PIM2 = PIM2 (Homo sapiens, UniProt Q9P1W9); assay: ProQinase radiometric kinase panel; conditions: mean of 2 exp.
PKC-zeta = PKC-zeta (Homo sapiens, UniProt Q05513); assay: ProQinase radiometric kinase panel; conditions: mean of 2 exp.
PLK1 = PLK1 (Homo sapiens, UniProt P53350); assay: ProQinase radiometric kinase panel; conditions: mean of 2 exp.
PRKD2 = PRKD2 (Homo sapiens, UniProt Q9BZL6); assay: ProQinase radiometric kinase panel; conditions: mean of 2 exp.
PRKX = PRKX (Homo sapiens, UniProt P51817); assay: ProQinase radiometric kinase panel; conditions: mean of 2 exp.
S6K-beta = S6K-beta (Homo sapiens, UniProt Q9UBS0); assay: ProQinase radiometric kinase panel; conditions: mean of 2 exp.
SGK3 = SGK3 (Homo sapiens, UniProt Q96BR1); assay: ProQinase radiometric kinase panel; conditions: mean of 2 exp.
STK23 = STK23 (Homo sapiens, UniProt Q9UPE1); assay: ProQinase radiometric kinase panel; conditions: mean of 2 exp.
STK23, sequence (Q9UPE1 whole entry): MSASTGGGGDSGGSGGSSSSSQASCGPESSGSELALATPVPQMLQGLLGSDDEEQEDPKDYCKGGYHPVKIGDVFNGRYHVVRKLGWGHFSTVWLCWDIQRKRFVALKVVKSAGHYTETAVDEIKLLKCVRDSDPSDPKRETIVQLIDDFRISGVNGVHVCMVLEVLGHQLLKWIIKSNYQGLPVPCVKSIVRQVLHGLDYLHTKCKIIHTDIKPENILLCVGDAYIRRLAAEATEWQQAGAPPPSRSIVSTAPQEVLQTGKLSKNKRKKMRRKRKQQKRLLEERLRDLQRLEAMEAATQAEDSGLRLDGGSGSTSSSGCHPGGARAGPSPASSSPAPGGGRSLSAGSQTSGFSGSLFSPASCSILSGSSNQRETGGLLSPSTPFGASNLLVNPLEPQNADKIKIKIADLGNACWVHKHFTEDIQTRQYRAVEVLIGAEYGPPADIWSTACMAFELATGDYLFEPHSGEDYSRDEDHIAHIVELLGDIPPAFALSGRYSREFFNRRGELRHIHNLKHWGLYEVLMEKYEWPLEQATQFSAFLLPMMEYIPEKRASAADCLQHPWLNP

PRKD2, sequence (Q9BZL6 whole entry): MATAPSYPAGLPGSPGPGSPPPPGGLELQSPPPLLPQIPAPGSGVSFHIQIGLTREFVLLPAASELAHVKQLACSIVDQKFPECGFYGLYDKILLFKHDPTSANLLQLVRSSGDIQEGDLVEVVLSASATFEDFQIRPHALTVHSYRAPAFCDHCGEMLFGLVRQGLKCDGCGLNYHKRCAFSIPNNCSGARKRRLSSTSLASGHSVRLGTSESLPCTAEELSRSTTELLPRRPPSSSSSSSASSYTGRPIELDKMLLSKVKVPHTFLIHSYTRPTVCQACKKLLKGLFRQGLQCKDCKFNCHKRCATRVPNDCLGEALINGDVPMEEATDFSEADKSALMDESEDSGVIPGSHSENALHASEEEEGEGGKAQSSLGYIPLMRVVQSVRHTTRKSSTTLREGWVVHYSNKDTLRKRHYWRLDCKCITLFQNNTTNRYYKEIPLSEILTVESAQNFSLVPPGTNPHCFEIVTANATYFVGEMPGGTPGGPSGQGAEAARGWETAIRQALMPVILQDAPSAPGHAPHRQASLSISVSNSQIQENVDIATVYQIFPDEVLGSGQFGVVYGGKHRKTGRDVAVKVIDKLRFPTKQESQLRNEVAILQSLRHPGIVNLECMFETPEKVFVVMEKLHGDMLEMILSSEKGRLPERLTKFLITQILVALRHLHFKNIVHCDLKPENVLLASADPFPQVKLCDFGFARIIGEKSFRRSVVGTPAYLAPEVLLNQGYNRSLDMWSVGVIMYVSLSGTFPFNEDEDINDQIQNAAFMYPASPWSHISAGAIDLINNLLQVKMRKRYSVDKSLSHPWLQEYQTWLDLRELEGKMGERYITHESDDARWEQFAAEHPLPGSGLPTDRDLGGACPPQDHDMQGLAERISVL
ABL1, sequence (P00519 whole entry): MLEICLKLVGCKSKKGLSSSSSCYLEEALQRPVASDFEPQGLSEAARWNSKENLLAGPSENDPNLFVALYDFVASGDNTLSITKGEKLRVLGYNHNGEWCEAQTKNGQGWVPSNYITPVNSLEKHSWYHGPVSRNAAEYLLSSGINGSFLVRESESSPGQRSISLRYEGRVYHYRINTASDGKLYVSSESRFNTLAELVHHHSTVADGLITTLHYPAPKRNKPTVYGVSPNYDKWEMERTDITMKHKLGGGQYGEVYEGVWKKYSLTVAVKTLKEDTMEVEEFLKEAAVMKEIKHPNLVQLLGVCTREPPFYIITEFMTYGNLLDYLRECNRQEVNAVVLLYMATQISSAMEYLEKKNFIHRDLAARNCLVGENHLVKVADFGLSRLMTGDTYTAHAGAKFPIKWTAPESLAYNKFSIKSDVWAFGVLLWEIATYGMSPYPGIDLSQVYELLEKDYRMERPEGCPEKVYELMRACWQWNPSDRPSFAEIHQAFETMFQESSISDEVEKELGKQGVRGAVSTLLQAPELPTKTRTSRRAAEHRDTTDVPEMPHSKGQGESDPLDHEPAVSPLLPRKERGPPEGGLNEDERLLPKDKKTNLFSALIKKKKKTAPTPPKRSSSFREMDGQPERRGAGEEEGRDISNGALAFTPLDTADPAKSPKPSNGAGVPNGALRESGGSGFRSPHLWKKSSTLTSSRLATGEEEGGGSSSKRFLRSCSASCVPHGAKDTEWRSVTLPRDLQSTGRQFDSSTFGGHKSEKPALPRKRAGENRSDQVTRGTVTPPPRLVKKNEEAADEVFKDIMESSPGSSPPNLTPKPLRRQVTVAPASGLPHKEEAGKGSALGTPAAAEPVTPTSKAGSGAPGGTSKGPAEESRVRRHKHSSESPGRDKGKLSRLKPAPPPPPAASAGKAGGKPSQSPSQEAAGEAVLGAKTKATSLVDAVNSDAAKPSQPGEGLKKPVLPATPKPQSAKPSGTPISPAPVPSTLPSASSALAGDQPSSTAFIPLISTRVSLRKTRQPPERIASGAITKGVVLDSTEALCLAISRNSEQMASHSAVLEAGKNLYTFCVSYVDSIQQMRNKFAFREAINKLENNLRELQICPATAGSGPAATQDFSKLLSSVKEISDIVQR
PLK1, sequence (P53350 whole entry): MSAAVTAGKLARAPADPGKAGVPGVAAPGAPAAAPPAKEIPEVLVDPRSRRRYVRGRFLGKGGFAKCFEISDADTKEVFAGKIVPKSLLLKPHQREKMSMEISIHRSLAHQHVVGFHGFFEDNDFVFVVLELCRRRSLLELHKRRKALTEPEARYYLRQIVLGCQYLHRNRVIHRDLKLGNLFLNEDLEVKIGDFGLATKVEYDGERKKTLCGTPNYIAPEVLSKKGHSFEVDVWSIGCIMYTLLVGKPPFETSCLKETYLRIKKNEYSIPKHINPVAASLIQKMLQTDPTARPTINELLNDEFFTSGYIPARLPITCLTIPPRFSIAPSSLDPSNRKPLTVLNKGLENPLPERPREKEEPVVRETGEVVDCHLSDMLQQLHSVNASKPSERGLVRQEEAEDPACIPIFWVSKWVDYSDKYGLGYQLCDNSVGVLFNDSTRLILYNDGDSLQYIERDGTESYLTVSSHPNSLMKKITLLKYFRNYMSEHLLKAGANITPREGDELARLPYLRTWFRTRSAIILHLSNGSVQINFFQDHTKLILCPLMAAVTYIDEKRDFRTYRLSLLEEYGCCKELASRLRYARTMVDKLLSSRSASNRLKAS
MST1, sequence (Q13043 whole entry): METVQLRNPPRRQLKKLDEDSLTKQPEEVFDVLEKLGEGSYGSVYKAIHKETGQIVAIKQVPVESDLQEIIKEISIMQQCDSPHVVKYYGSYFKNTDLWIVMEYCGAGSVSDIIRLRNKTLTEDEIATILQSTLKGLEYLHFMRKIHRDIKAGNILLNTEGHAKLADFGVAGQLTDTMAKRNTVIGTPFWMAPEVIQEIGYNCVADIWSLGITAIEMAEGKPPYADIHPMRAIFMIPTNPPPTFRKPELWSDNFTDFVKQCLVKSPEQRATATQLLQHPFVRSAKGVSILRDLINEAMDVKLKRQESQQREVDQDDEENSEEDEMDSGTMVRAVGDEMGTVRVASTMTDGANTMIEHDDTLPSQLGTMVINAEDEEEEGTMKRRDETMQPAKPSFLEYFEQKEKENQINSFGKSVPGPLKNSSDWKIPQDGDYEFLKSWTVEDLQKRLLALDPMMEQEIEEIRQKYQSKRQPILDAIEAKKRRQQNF
MAP4K5, sequence (Q9Y4K4 whole entry): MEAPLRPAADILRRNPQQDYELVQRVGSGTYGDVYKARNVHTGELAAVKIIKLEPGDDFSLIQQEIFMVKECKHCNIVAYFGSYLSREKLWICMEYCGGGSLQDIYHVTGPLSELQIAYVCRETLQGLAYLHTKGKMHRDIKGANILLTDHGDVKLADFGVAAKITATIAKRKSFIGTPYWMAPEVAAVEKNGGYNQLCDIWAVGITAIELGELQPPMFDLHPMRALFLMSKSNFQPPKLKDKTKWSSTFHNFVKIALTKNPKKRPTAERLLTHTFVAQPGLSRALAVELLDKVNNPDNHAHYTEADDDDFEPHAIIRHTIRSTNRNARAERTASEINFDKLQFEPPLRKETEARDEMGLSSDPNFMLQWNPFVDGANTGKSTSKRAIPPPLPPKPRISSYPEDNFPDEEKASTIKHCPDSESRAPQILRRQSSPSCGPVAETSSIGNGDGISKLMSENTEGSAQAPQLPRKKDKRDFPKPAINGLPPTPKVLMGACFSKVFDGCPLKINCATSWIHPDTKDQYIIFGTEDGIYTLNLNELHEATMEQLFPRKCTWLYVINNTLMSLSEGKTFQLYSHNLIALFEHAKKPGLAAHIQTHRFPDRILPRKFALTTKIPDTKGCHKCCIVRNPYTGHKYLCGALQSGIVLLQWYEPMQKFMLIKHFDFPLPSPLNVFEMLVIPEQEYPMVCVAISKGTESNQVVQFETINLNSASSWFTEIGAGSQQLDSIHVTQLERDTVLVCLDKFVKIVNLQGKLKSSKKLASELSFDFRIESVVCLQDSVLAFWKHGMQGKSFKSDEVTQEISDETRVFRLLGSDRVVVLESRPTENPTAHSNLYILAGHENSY
GSK3-alpha, sequence (P49840 whole entry): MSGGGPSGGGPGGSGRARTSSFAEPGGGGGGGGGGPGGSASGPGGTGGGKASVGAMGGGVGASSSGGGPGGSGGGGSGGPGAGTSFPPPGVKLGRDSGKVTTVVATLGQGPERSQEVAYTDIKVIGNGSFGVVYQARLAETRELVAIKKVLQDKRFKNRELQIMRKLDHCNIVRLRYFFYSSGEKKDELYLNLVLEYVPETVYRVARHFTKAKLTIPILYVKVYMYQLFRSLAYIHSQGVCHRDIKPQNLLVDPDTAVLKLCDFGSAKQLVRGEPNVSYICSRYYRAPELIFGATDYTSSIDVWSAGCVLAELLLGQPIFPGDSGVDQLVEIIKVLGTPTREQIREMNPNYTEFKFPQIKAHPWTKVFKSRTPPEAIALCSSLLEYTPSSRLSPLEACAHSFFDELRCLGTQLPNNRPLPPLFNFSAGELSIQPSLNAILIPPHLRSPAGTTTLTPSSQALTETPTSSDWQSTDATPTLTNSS

residual activity at 1 µM, Mean (ABL1): 95 % of control
residual activity at 1 µM, Mean (AKT2): 106 % of control
residual activity at 1 µM, Mean (AKT3): 104 % of control
residual activity at 1 µM, Mean (ARK5): 94 % of control
residual activity at 1 µM, Mean (AXL): 95 % of control
residual activity at 1 µM, Mean (CAMK2B): 92 % of control
residual activity at 1 µM, Mean (CDC42BPA): 76 % of control
residual activity at 1 µM, Mean (CDC42BPB): 94 % of control
residual activity at 1 µM, Mean (CDK3/CycE1): 94 % of control
residual activity at 1 µM, Mean (CHK1): 100 % of control
residual activity at 1 µM, Mean (DAPK3): 98 % of control
residual activity at 1 µM, Mean (EPHB1): 89 % of control
residual activity at 1 µM, Mean (FGF-R2): 85 % of control
residual activity at 1 µM, Mean (FGF-R4): 98 % of control
residual activity at 1 µM, Mean (GSK3-alpha): 81 % of control
residual activity at 1 µM, Mean (IKK-epsilon): 95 % of control
residual activity at 1 µM, Mean (LRRK2): 83 % of control
residual activity at 1 µM, Mean (MAP4K5): 84 % of control
residual activity at 1 µM, Mean (MARK2): 98 % of control
residual activity at 1 µM, Mean (MKNK2): 92 % of control
residual activity at 1 µM, Mean (MST1): 91 % of control
residual activity at 1 µM, Mean (MST4): 92 % of control
residual activity at 1 µM, Mean (p38-alpha): 86 % of control
residual activity at 1 µM, Mean (PAK7): 90 % of control
residual activity at 1 µM, Mean (CDK16/CycY): 90 % of control
residual activity at 1 µM, Mean (PIM2): 107 % of control
residual activity at 1 µM, Mean (PKC-zeta): 97 % of control
residual activity at 1 µM, Mean (PLK1): 93 % of control
residual activity at 1 µM, Mean (PRKD2): 90 % of control
residual activity at 1 µM, Mean (PRKX): 80 % of control
residual activity at 1 µM, Mean (S6K-beta): 102 % of control
residual activity at 1 µM, Mean (SGK3): 108 % of control
residual activity at 1 µM, Mean (STK23): 93 % of control
Structure (SMILES): COc1ccc2c3ccnc(Cl)c3n(CC#N)c2c1 [AnnH75]
viability at 3 days, 1 µM (Cell viability XTT assay; 1 μM): 100%
viability at 3 days, 3 µM (Cell viability XTT assay; 3 μM): 93%
cytotoxicity (HeLa cells): minimal cytotoxicity
